Experimental data as given in PubChem BioAssay AID651557 (The Scripps Research Institute Molecular Screening Center, 2012).
Active and inactive are the calls of the source.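 How the source made its calls: active means IC50 half-maximal inhibitory concentration at most 10 µM; inactive means IC50 above 10 µM.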

Target: Melanocortin receptor 4 (Homo sapiens) (UniProt P32245)
Test: MC4R antagonists blocking beta-arrestin recruitment, late-stage follow-up, luminescence, biased ligand project, U2OS cells (AID 651557)
Details: beta-gal complementation luminescence

Sequence of Melanocortin receptor 4 (Homo sapiens) (P32245 whole entry, looked up): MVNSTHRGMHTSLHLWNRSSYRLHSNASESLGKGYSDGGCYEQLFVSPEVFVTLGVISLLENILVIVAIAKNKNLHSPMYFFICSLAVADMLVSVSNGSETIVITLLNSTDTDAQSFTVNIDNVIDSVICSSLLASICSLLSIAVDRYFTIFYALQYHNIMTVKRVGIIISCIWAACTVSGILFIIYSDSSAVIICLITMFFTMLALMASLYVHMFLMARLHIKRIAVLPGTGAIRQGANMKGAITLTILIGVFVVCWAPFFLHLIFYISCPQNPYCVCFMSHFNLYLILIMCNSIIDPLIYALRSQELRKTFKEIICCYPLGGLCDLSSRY

Structure (SMILES)	IC50
CNC(=O)c1cc(Oc2ccc(NCC(=O)Nc3ccc(Cl)c(C(F)(F)F)c3)cc2)ccn1	> 50 µM (inactive)
Cc1ccccc1CN1Cc2cnnn2-c2ccccc2C1C#N (configuration not stated)	inactive
COc1ccc(N(C(C)=O)C(C(=O)NC2CCCC2)c2cccs2)cc1OC (configuration not stated)	> 50 µM (inactive)
CC1CCCCN1S(=O)(=O)c1ccc(NC(=O)c2nc(S(C)(=O)=O)ncc2Cl)cc1 (configuration not stated)	3.55 µM
C#CC(=O)N(c1ccc(OC)c(OC)c1)C(C(=O)NC1CCCC1)c1cccs1 (configuration not stated)	inactive
CCC1CCCCN1S(=O)(=O)c1ccc(NC(=O)c2cccc(S(C)(=O)=O)c2)cc1 (configuration not stated)	> 50 µM (inactive)
CCC1CCCCN1S(=O)(=O)c1ccc(NC(=O)c2ccccc2)cc1 (configuration not stated)	> 50 µM (inactive)
CNC(=O)c1cc(Oc2ccc(NC(=O)CNc3ccc(Cl)c(C(F)(F)F)c3)cc2)ccn1	> 50 µM (inactive)
CC(=O)c1ccc(Nc2nc3ccc(C(=O)N(CCC(C)C)CCC(C)C)cc3n2CCCN2CCCCC2)cc1	0.00232 µM
COc1ccccc1C1(CCNC(C)c2cccs2)CCOC(C(C)C)C1 (configuration not stated)	6.73 µM
CCC1CCCCN1S(=O)(=O)c1ccc(NC(=O)c2ccnc(SC)n2)cc1 (configuration not stated)	> 50 µM (inactive)
O=C1c2cccc3cccc(c23)C(=O)N1CC1CCN(CC(O)COc2ccc3ccccc3c2)CC1 (configuration not stated)	> 50 µM (inactive)
